{"source": "paper PMC3514653", "about": "(Neuromodulation : journal of the International …, 2012)", "key": {"[1]": {"details": "dog, in vivo"}, "[2]": {"details": "dog, in vivo", "remark": "listed apart in the source"}, "[3]": {"details": "dog, in vivo", "remark": "listed apart in the source"}, "Male beagle dogs [4]": {"tested_on": "Male beagle dogs", "details": "dog, in vivo"}, "Male beagle dogs [5]": {"tested_on": "Male beagle dogs", "details": "dog, in vivo", "remark": "listed apart in the source"}, "Male beagle dogs [6]": {"tested_on": "Male beagle dogs", "details": "dog, in vivo", "remark": "listed apart in the source"}, "Male beagle dogs [7]": {"tested_on": "Male beagle dogs", "details": "dog, in vivo, iv, 0.1 mg/kg"}, "in vivo [8]": {"test": "in vivo", "details": "male, beagle, dog, 10 ug"}, "in vivo [9]": {"test": "in vivo", "details": "male, beagle, dog, iv, 0.1 mg/kg"}, "in vivo [10]": {"test": "in vivo", "details": "beagle, dog"}, "[11]": {"details": "in vivo; cited from earlier work"}, "[12]": {"details": "in vivo; cited from earlier work", "remark": "listed apart in the source"}}, "note": "Like-named read-outs stand apart in the source and are kept apart here. Marks after values point to notes of the source that are not given here."}
{"smiles": "CSCC[C@@H]1NC(=O)[C@H](CC(C)C)NC(=O)[C@H](CCCNC(=N)N)NC(=O)[C@H](CO)NC(=O)[C@@H]2CSSC[C@@H]3NC(=O)[C@H](CO)NC(=O)CNC(=O)[C@H]([C@@H](C)O)NC(=O)[C@H](CSSC[C@H](N)C(=O)N[C@@H](CCCCN)C(=O)NCC(=O)N[C@@H](CCCCN)C(=O)NCC(=O)N[C@@H](C)C(=O)N[C@@H](CCCCN)C(=O)N2)NC(=O)[C@H](CSSC[C@@H](C(N)=O)NC(=O)[C@H](CCCCN)NC(=O)CNC(=O)[C@H](CO)NC(=O)[C@H](CCCNC(=N)N)NC3=O)NC(=O)[C@H](CC(=O)O)NC(=O)[C@H](Cc2ccc(O)cc2)NC1=O", "note": "[Ziconotide]", "values": [{"measurement": "CSF : plasma ratio", "setting": "[1]", "value": "approximately 20,000: 1"}, {"measurement": "Time of peak concentration in LCSF", "setting": "[1]", "value": "≤ 3", "unit": "min"}, {"measurement": "Vz/F", "setting": "[1]", "value": "12932 – 33328^b mL"}, {"measurement": "Elimination T1/2 in CSF following IV injection", "setting": "[2]", "value": 1.64, "unit": "h"}, {"measurement": "Elimination T1/2 in plasma following IV injection", "setting": "[2]", "value": 0.75, "unit": "h"}, {"measurement": "Elimination half life after bolus IV delivery", "setting": "[2]", "value": 1.6, "unit": "h"}, {"measurement": "FCSF (absolute bioavailability in CSF after bolus IV)", "setting": "[2]", "value": 0.013, "unit": "%"}, {"measurement": "LCSF: cisternal ratio at steady state", "setting": "[3]", "value": "~1: 0.02"}, {"measurement": "Plasma concentration relative to that in the cisterna", "setting": "[3]", "value": "approximately 0.1 times"}, {"measurement": "Ratio of LCSF concentrations at infusion doses 1 and 5 µg/hr", "setting": "[3]", "value": "approximately 1: 4"}, {"measurement": "Terminal elimination T1/2 after termination of continuous infusion", "setting": "[3]", "value": 2.47, "unit": "h"}, {"measurement": "Time to peak plasma level", "setting": "[3]", "value": "≤ 8", "unit": "h"}, {"measurement": "Plasma concentration at steady state, 8–48 hr group mean", "setting": "[3]; male, beagle, 5 ug/hr", "value": 1.12, "unit": "ng/mL"}, {"measurement": "Arousal, muscle tone, and coordination", "setting": "Male beagle dogs [4]", "value": "not affected"}, {"measurement": "Diarrhea, dogs affected", "setting": "Male beagle dogs [4]", "value": "3 of the 5"}, {"measurement": "Severity of whole body trembling and ataxia", "setting": "Male beagle dogs [4]", "value": "tendency for this to increase in severity"}, {"measurement": "Whole body trembling, dogs affected", "setting": "Male beagle dogs [4]", "value": "3 of the 5"}, {"measurement": "Persistence of observed effects", "setting": "Male beagle dogs [4]; iv, 0.1 mg/kg", "value": "absent 24 hr post injection"}, {"measurement": "Scleral vasodilation and facial erythema, dogs affected", "setting": "Male beagle dogs [4]; iv, 0.1 mg/kg", "value": "2 of the 5"}, {"measurement": "Vomiting, dogs affected", "setting": "Male beagle dogs [4]; iv, 0.1 mg/kg", "value": "4 of the 5"}, {"measurement": "Body temperature versus baseline", "setting": "Male beagle dogs [5]", "value": "not different from pretreatment baseline measurements"}, {"measurement": "Time for elevated temperatures to return to baseline", "setting": "Male beagle dogs [5]", "value": "24 to 72", "unit": "h"}, {"measurement": "Body temperature versus baseline", "setting": "Male beagle dogs [5]; iv", "value": "not different from pretreatment baseline measurements"}, {"measurement": "Blood pressure and heart rate effect", "setting": "Male beagle dogs [6]", "value": "modest decline in mean, diastolic, and systolic pressures and a mild tachycardia"}, {"measurement": "Effect upon blood pressure", "setting": "Male beagle dogs [6]", "value": "no effect upon blood pressure"}, {"measurement": "Effect upon mean, diastolic, and systolic blood pressures", "setting": "Male beagle dogs [6]", "value": "prominent reduction that persisted for the remainder of the infusion"}, {"measurement": "Duration of fall in blood pressures", "setting": "Male beagle dogs [6]; iv, 0.1 mg/kg", "value": "> 8", "unit": "h"}, {"measurement": "Effect upon heart rate", "setting": "Male beagle dogs [6]; iv, 0.1 mg/kg", "value": "corresponding tachycardia"}, {"measurement": "Fall in mean, diastolic, and systolic pressures", "setting": "Male beagle dogs [6]; iv, 0.1 mg/kg", "value": "approximately 40 mmHg"}, {"measurement": "Respiratory rates", "setting": "Male beagle dogs [7]", "value": "moderate decrease in respiratory rates for approximately 3 hr post injection"}, {"measurement": "CL/F", "setting": "in vivo [8]", "value": 196, "unit": "mL/min"}, {"measurement": "Vd/F", "setting": "in vivo [8]", "value": 17.2, "unit": "L"}, {"measurement": "AUC(0-inf)", "setting": "in vivo [8]; AUC∞", "value": 0.85, "unit": "ng·h/mL"}, {"measurement": "bioavailability", "setting": "in vivo [8]; iv", "value": 53.5, "unit": "%"}, {"measurement": "Cmax", "setting": "in vivo [9]", "value": "~900", "unit": "ng/mL"}, {"measurement": "CL/F", "setting": "in vivo [10]; CL/F (infusion rate divided by steady-state concentration)", "value": 134, "unit": "mL/min"}, {"measurement": "level at 48 h", "setting": "in vivo [10]; male, 5 ug/hr", "value": 13.5, "unit": "ng/mL"}, {"measurement": "Median LCSF half-life", "setting": "[11]", "value": 4.5, "unit": "h"}, {"measurement": "Volume of distribution", "setting": "[11]", "value": 99, "unit": "mL"}, {"measurement": "Diffusion of the peptide in rat brain parenchyma", "setting": "[12]", "value": "less than 1 mm"}]}
